Data as given in paper PMC12037037 (Proceedings of the National Academy of Sciences of the …, 2025).
pEC50: −log10 of the molar value.

Experiments:
[1] = biological target: T1, human recombinant 5-HT2AR (Homo sapiens, UniProt P28223); assay: IP1 functional assay (5-HT2AR); format: cell-based; settings: 5-HT2A, functional assay relevant to G protein activation (IP1), agonist mode
T1 construct: host or cells: CHO-K1

[2] = biological target: 5-HT7 (Homo sapiens, UniProt P34969); assay: Functional assay at 5-HT7 (Fig. S4); format: cell-based
5-HT7, sequence (P34969 whole entry): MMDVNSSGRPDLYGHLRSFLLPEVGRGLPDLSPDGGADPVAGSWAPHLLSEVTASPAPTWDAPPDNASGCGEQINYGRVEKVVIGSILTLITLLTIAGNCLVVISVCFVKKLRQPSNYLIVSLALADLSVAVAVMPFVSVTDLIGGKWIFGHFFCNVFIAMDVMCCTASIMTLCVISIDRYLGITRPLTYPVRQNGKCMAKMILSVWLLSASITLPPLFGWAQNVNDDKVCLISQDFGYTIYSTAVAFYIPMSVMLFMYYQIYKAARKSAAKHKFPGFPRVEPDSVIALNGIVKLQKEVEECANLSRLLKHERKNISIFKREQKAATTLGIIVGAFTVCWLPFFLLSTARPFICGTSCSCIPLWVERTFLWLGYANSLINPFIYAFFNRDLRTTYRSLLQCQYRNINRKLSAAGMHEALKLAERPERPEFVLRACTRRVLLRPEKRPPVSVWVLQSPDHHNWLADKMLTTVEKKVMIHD
Source text: (§1) Figure S4. […] Radioligand binding (RLB) (top) and IP1 functional assays (bottom) for 5-HT1A (A), 5-HT5a (B), 5-HT6 (C), and 5-HT7 (D) receptors. Agonist or antagonist mode is indicated in the title of each graph. Data represent the mean ± SEM of 2 technical replicates.
(§2) 5-carboxamidotryptamine; ND = not determined for incomplete curves.
(§3) (1 picture or pasted object on this page, not shown here)

[3] = system: E18 rat embryonic cortical neurons (DIV18-19); assay: Spinogenesis assay using cultured rat cortical neurons; format: cell-based
[4] = biological target: psychLight S242A^5.46 (murinized variant) (Homo sapiens, UniProt P28223, S242A); assay: PsychLight assay, S242A^5.46 mutant; format: cell-based
psychLight S242A^5.46 (murinized variant), sequence (P28223 with tags, fused parts or gaps S242A): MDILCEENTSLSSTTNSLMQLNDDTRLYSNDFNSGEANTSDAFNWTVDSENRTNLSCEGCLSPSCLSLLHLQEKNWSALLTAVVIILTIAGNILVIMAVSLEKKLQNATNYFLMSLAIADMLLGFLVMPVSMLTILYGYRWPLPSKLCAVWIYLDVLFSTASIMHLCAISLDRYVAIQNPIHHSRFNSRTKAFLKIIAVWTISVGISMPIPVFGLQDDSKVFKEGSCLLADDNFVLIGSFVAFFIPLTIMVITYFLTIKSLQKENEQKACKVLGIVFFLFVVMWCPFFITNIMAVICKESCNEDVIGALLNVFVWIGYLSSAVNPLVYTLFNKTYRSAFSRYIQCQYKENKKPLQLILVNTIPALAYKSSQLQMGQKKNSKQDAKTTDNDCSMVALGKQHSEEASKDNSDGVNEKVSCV
psychLight S242A^5.46 (murinized variant), sequence (P42212 with tags, fused parts or gaps partner): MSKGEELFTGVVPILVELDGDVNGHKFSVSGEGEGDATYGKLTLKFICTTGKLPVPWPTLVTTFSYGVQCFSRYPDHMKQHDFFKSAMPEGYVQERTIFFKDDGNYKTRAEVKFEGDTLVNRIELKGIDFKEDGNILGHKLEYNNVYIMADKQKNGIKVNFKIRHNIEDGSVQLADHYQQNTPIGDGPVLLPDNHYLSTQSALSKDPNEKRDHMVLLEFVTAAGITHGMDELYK

[5] = system: male Long Evans rats; assay: Probabilistic reward task (PRT) under chronic cold-water stress; format: in vivo; settings: for Response bias (log b) (Figure 6G): JRT 1 mg/kg
[6] = system: C57BL/6J mice; assay: Prepulse inhibition (PPI); format: in vivo
Protocol: Amphetamine-Induced Locomotion. The amphetamine-induced hyperlocomotion assay was performed using male and female C57BL/6J mice that were approximately 8 weeks old at the time of the experiments. Animals were first placed in the test arena (40 cm x 40 cm) for 15 min to obtain a basal reading of locomotion and habituate them to the testing arena.
Next, animals were administered (+)-JRT (1 mg/kg) or VEH (2.5 mL/kg, i.p) and placed back in the test arena. After 15 min, the animals were administered (+)-amphetamine (3 mg/kg) or VEH (2.5 mL/kg) and placed back in the test arena for 60 minutes. Locomotion during the entire experiment was quantified using ANYmaze Video Tracking System, version 7.07 (Stoelting Co.). The test arena was cleaned thoroughly with 70% ethanol between trials.
PCP-Induced Locomotion. The PCP-induced hyperlocomotion assay was performed by Psychogenics using male C57BL/6J mice that were approximately 8 weeks old at the time of the experiments. The experiment was performed during the animal’s light cycle phase. […] Baseline activity was recorded for 30 min. […] Locomotion was assessed using consecutive infrared beam breaks. […]
Next, startle response was measured in response to five 40 ms sound bursts of 80, 90, 100, 110, or 120 dB (random order, fixed intertrial interval). […] Percent PPI was calculated according to the formula: 100 – [(pre-pulse + pulse)/pulse alone) × 100. […]

[7] = biological target: 5-HT1A (Homo sapiens, UniProt P08908); assay: Functional assay at 5-HT1A (Fig. S4); format: cell-based
5-HT1A, sequence (P08908 whole entry): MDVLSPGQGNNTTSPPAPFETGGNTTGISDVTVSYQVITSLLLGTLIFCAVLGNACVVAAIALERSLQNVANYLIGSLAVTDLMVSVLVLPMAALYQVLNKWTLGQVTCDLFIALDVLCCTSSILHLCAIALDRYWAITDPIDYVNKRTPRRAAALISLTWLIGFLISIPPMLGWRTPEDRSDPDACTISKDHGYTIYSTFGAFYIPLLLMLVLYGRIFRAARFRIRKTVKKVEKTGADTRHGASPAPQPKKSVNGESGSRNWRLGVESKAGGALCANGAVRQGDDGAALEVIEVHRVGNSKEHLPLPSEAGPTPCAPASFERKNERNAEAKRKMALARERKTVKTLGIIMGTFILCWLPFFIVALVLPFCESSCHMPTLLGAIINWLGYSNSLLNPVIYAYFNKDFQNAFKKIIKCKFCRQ
Source text: as §1, §2, §3

[8] = system: C57BL/6J mice; assay: 4-odor discrimination and reversal after unpredictable mild stress; format: in vivo
[9] = biological target: T2, 5-HT2A receptors (Gi1, Gi3 activation) (Homo sapiens, UniProt P28223); assay: BRET-based assays of Gi1 and Gi3 activation; format: cell-based
T2 construct: expressed in transfected cells; host or cells: HEK293T (transient)
T2 sequence (P28223 whole entry): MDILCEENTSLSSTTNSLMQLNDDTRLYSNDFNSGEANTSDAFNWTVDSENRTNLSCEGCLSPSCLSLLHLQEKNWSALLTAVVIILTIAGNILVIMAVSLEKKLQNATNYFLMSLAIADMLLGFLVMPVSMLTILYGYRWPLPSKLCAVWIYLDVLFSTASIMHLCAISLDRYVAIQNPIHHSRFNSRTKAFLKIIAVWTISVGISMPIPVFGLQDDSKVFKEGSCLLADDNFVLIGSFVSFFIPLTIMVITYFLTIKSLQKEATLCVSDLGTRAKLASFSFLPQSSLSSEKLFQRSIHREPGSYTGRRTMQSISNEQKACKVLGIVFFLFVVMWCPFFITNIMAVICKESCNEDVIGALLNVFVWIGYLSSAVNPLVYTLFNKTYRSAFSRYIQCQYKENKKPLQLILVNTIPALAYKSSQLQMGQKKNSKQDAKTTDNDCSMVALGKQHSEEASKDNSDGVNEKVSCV

T1 sequence (P28223 whole entry): as above

Q: How did the Emax [1] turn out when CCN(CC)C(=O)[C@@H]1C=C2c3cccc4ccn(c34)C[C@H]2N(C)C1 [(+)-JRT] was run?
A: Its Emax is 81%.

Q: And the “Functional activity at 5-HT7, agonist mode” value [2]?
A: Its value is “agonist or partial agonist”.

Q: And the “Dendritic spine growth in mature cortical cultures” value ([3]; 1 μM, 24 h, DIV19, compared to vehicle (P < 0.0001) and CLZ (P = 0.0005))?
A: Its value is “promoted dendritic spine growth”.

Q: What about the “Effect of ketanserin (10 μM) pretreatment on compound-induced dendritic spine density” value ([3]; compound 1 μM) of the same compound?
A: Its value is “blocks”.

Q: And the pEC50 ([4]; psychLight (S242A^5.46): EC50, agonist mode)?
A: Its pEC50 is 7.41.

Q: And the pEC50 ([4]; psychLight (S242A^5.46): EC50, antagonist mode, cotreated with 10 μM serotonin (5-HT + compound))?
A: Its pEC50 is 6.33.

Q: What about the Emax ([4]; read-out: psychLight (S242A^5.46): EMax) of the same compound?
A: Its Emax is 32%.

Q: And the “Persistence of the effect on response bias following a single dose” value ([5]; 1 mg/kg, continued daily cold-water stress)?
A: The value was “at least 3 d”.

Q: And the “Response bias (log b) (Figure 6G)” value ([5]; Day 2, Day 1 0.131 ± 0.082)?
A: Its value is 0.406 ± 0.069.

Q: And the “Response bias (log b) (Figure 6G)” value ([5]; Day 3, Day 1 0.131 ± 0.082)?
A: Its value is 0.474 ± 0.112.

Q: And the “Response bias (log b) (Figure 6G)” value ([5]; Day 11, Day 1 0.131 ± 0.082)?
A: The value was 0.290 ± 0.061.

Q: And the “Response bias (log b) (Figure 6G)” value ([5]; Day 1 (stressed, before drug) 0.131 ± 0.082)?
A: Its value is 0.491 ± 0.071.

Q: What about the “Deficits in prepulse inhibition induced by the compound itself” value ([6]; 1 mg/kg IP) of the same compound?
A: Its value is “did not induce any deficits in PPI”.

Q: What about the “Effect of pretreatment on MK-801-induced deficits in prepulse inhibition” value ([6]; 1 mg/kg IP pretreatment, MK-801) of the same compound?
A: The value was “did not exacerbate”.

Q: What about the “Functional activity at 5-HT1A” value [7] of the same compound?
A: Its value is “agonist or partial agonist”.

Q: What about the “Discrimination (Figure 7B)” value ([8]; (+)-JRT 1 mg/kg IP + Stress (UMS), VEH + Stress 20.20 ± 1.843, VEH – Stress 21.27 ± 2.516) of the same compound?
A: The value was 20.50 ± 2.212.

Q: What about the “Reversal (Figure 7B)” value ([8]; (+)-JRT 1 mg/kg IP + Stress (UMS), VEH + Stress 21.00 ± 2.385, VEH – Stress 13.64 ± 1.744) of the same compound?
A: Its value is 12.40 ± 1.118.

Q: And the “Total Trials (Figure S17)” value ([8]; Stress + (+)-JRT 1 mg/kg IP, Stress 41.20 ± 3.972, VEH 34.91 ± 2.661)?
A: Its value is 32.90 ± 2.479.

Q: And the “Gi activation following stimulation of 5-HT2A receptors” value [9]?
A: The value was “does not activate”.
